The values below are quoted from earlier work in patent US20090238905A1, “INFLAMMATION REDUCING ACTION OF SYNERGISTIC MIXTURES OF BISABOLOL AND GINGER EXTRACTS” (SYMRISE, Inc., priority 2008, published 2009).

The subject of series [1] is LTB4.
Series [2] deals with IL-1α.
Series [3] relates to PGE2.
Series [4] deals with HL-60 cells.
Series [5] deals with TNF-α.
Series [6] relates to COX-2.

For `CC(C)=CCC[C@](C)(O)C1CC=C(C)CC1` (stereo partly shown) [Bisabolol, bisabolol], in series [1], the LTB4 inhibition result is listed as “very effective”. Besides, the IL-1α inhibition result in series [2] is listed as “very effective”. The PGE2 inhibition entry in series [3] is “not as a PGE2 inhibitor”.

Take `CCCCC[C@H](O)CC(=O)CCc1ccc(O)c(OC)c1` [Gingerol]: the IL-1α inhibition entry in series [2] is “did not have an effect”. Moreover, the “inhibition of PGE2 production” value in series [4] is “inhibit PGE2 production”. In addition, in series [5], the “inhibition of activation of TNF-α” value is “inhibit activation of TNF-α”. The “inhibition of COX-2 expression” value in series [6] is listed as “inhibit”.
